The values that follow come from US12551434B2, “Zwitterionic polymer particle compositions and related methods” (WAYNE STATE UNIVERSITY, priority 2020, dated 2026).

Data set [1] has as its system Caco-2 cells (PAT1 overexpression). The data set is described as follows: Cell uptake of micelle/polystyrene nanoparticles (confocal, flow cytometry). In kind it is cell-based, human. On the technique in general: A flow cytometer gives signals particle by particle.
Method: Cell uptake of polystyrene nanoparticles for Caco-2 and 3T3 cells. Caco-2 human colon epithelial cells and NIH 3T3 mouse embryonic fibroblast cells were used as received from the American Type Culture Collection without further authentication, and were cultured in Dulbecco's Modified Eagle's Medium (DMEM) and Eagle's Minimum Essential Medium (EMEM) at 37° C. in a 5% CO2 environment respectively. […] Cells were seeded in a 12-well plate at a density of 1×10^5 cells per well overnight, washed twice with pre-wared PBS, and incubated with DSPE-PCB/polystyrene nanoparticles in culture medium at 37° C. for 2 h. […] Cellular uptake of DSPE-PCB/polystyrene nanoparticles in different groups was examined by an Zeiss LSM 780 confocal laser scanning microscope. The Z-stack method was used for three-dimensional visualization, where the section thickness was 2.5 μm, the step interval was 2 m, and the total z-stack length was 44 μm (23 slices). Fluorescent signal was quantified by using the image J software. Cellular uptake was also quantitively measured with flow cytometry (BD FACSAria II flow cytometer) and analyzed with FlowJo X software.
In data set [2] the test system is Caco-2 monolayers. The data set is described as follows: Transepithelial electrical resistance (TEER) study. How it is done: Transepithelial electrical resistance (TEER) study. Caco-2 cells were suspended in EMEM supplemented with 20% FBS, and seeded at a density of 2×10^5 cells per well on Corning® Transwell polyester membrane cell culture inserts and incubated for 96 h. The TEER was monitored to confirm proper barrier formation and only monolayers with initial TEER values of at least 300Ω×cm^2 were used for TEER or molecular permeability experiments. Prior to the study, the medium in the apical and basolateral chambers was replaced with prewarmed EMEM. After equilibration at 37° C. for 30 min, the apical solution was replaced with Sodium decanoate, polysorbate 80 or DSPE-PCB (0.2% w/v) in EMEM. After incubation for 4 h, the TEER value of each insert was measured with EVOM2
Epithelial volt/ohmmeter to explore the integrity of the tight junction.

In data set [3] the test system is healthy mice. The data set is described as follows: Long-term safety of repeated consecutive dosing. As to conditions: for serum endotoxin and pro-inflammatory cytokines (TNF-α, IFN-γ, IL-6): healthy mice, oral gavage twice daily 14 days, day 0 and 14, before and 1 h after dose. On the procedure: Long-term safety of repeated consecutive dosing. […] At day 14, the lactulose/mannitol experiment was conducted to examine potential tight junction opening through the lactulose-mannitol intestinal permeability test. In addition, the ileum tissue was collected and fixed in 10% zinc fixative (BD Pharmingen™), dehydrated in ethanol, and embedded in paraffin. Five-μm cross-sections of intestine tissue were deparaffinized, rehydrated, and stained with Hematoxylin and Eosin. Histological morphology was examined using an EVOS XL Core Cell Imaging microscope. In addition, healthy mice received the same oral administered with DSPE-PCB micelle, saline, Polysorbate 80, or sodium decanoate twice daily for 14 consecutive days (the same dose as above). On day 0 and 14, before and 1 h after the oral administration, blood serum was collected and the endotoxin and pro-inflammatory cytokines (IFN-γ, IL-1β, ILL-4, IL-6, IL-12, TNF-α) were measured with Pierce LAL Chromogenic Endotoxin Quantitation Kit and the mouse magnetic Luminex® assays (Lot No: L131929).

The subject of data set [4] is intestine epithelial tight junctions. The data set is described as follows: TEM imaging of tight junctions after ileum injection. As to conditions: 1 h post ileum injection.
Method: (§1) 1 h post ileum injection of the formulations, mice were euthanized and small parts of ileum (5×5 mm) near to the injection site were collected and washed with PBS. The samples were continuously fixed in 2.5% glutaraldehyde+2.5% paraformaldehyde in 0.1M PBS buffer and 4% osmium tetroxide solution and transferred into Beem® embed capsule with micro-embed resin added to embed samples. The obtained blocks were further sectioned with ultra-microtomy to obtain sections with thickness of ˜70 nm. These sections were retrieved via copper grid and stained with 1% lead citrate and 4% uranyl acetate separately, and then visualized under a JEM-100CX II electron microscope operated at 100 kV.
Data set [5] concerns intestinal tight junctions. The data set is described as follows: Lactulose-mannitol intestinal permeability test. Format: in vivo. The following applies: healthy and diabetic mice, 1 h after ileum co-injection, vs control without micelles. On the procedure: The lactulose-mannitol intestinal permeability test. Healthy and diabetic mice remained fasted for 8 h and were restricted from water for 3 h before the experiment. Then mice received 500 μL water through oral gavage. 1 h later, the lactulose, mannitol, and free micelles were co-administered via ileum injection at the dose of 40/8/5.2 mg/ml (50 μL) and the wound is closed with wound clips. 1 h post ileum injection, the urine was collected, and the ileum tissue surrounding the injection site was collected for TEM imaging. The concentrations of lactulose and mannitol were measured using LC-MS-MS, with a mobile phase of 10 mM ammonium formate in water and acetonitrile (90:10), and an Agilent advanced bio glucan mapping column (2.1×100 mm×2.7 μm) (precursor and product: mannitol 180.7→89; lactulose 341.2→160.8).

Data set [6] is classed as in vitro ADME, porcine. How it is done: Tracking nanoparticle diffusion in mucus. Nanoparticle diffusion behavior in mucus was studied by modifying methods as described in Lai, S. K. et al. P Natl Acad Sci USA 104, 1482-1487 (2007) and Olmsted, S. S. et al. Biophys J 81, 1930-1937 (2001). Mucus was reconstituted by dissolving porcine stomach mucin in phosphate buffered saline (PBS) at 30 mg/ml. Nanogels were added into 100 μl mucus to reach a final concentration of 3% vol/vol (final particle concentration, 8.25×10^−7 wt/vol) and incubated for 1 h on a Nunc™ glass bottom dish (0.17 mm thickness for the inside bottom glass) before observation. Movies were captured with 64×oil-immersion objective in a spinning disc confocal microscope (Yokogawa CSU-X1M 5000 microlens, Zeiss LSM 800). For each nanogel sample, trajectories of n=50 particles were analyzed, and three samples were examined for each type of nanogel. MSD was calculated with the equation of MSD=<|r(t)-r(0)|^2> at a temporal resolution of 200 ms for 20 s.

In data set [7] the test system is intestine epithelial tight junctions. The following applies: mouse, in vivo.
Method: as §1
For data set [8], the system named is streptozotocin (STZ)-induced C57BL/6 diabetic mice. The data set is described as follows: Blood glucose lowering on STZ-induced diabetic mice (ileum injection or oral gavage). Format: in vivo. The following applies: ileum injection, 20 IU/Kg, compared with saline baseline. On the procedure: Animals and diabetes induction. All animal experiments were performed according to the National Institute of Health (NIH) guidelines for animal research under a protocol approved by the Institutional Animal Care and Use Committee (IACUC) at Wayne State University. To establish streptozotocin (STZ)-induced diabetic mice model, healthy mice (C57BL/6J, male, 6-8 weeks of age, Jackson Lab) received a daily intraperitoneal injection of 5 mg/ml STZ at 50 mg/kg body weight for 5 consecutive days. 17 days after the first injection, body weight and blood glucose were measured to confirm the diabetic status. Diabetic mice with blood glucose above 300 mg/dL were selected for further in vivo test. To establish STZ-rat model, healthy rats (Sprague Dawley rat, male, ˜180 g, Charles River) received a one-time intraperitoneal injection of 65 mg/kg STZ. 10 days after injection, diabetic rats with blood glucose above 300 mg/dL were selected for further in vivo test.
Ileum injection surgery. Mice received buprenorphine SR subcutaneously and surgical anesthesia was managed by isoflurane inhalation. The surgical site (abdomen) was shaved and prepped with three alternating scrubs of betadine and alcohol. On prepped animal, a single incision (1.5-2 cm) was made through abdomen skin. About 0.5-1 cm ileum of intestine was pulled-out from the enterocoelia. […]

Data set [9] relates to Caco-2 cells.
Data set [10] has as its system Caco-2 cells. The data set is described as follows: In vitro cytotoxicity (MTT) and live/dead assay. In kind it is cell-based, human. As to conditions: 0.01-1 mg/ml, 24 h. How it is done: In vitro cytotoxicity and live/dead assay. In vitro cytotoxicity was evaluated using MTT assay with Caco-2 cells. Caco-2 cells were seeded on 96-well plates at a density of 2×10^4 cells per well in Eagle's Minimum Essential Medium (EMEM) with 20% FBS and cultured in 5% CO2 atmosphere at 37° C. for 24 h. Then the cells were washed twice with HBSS and incubated with 100 μl of DSPE-PCB micelle or Polysorbate 80 solutions in EMEM with concentrations of 0.01, 0.1, and 1.0 mg/ml, respectively. After 24 h of incubation at 37° C., the DSPE-PCB micelle and Polysorbate 80 solution were replaced with 100 μL of MTT solution (0.5 mg/ml in HBSS), and the cells were incubated for an additional 4 h at 37° C. Subsequently, the supernatant was carefully removed and 150 μL of dimethyl sulfoxide (DMSO) was added to each well. The absorbance of the resultant solutions was measured at 570 nm using a microplate reader (Bio-Rad, USA). Untreated cells were used as negative control for 100% cell viability. Cell viability was expressed as percentage of absorbance relative to the control. Live/dead assay was conducted by staining the cells with 100 μL of PBS buffer containing 2 μM Calcein and 4 μM ethidiumhomodimer-1 (Live/Dead viability/cytotoxicity kit, Invitrogen, CA, USA). The cells were incubated at room temperature for 30 minutes and observed by the EVOS FL fluorescence microscope (AMG).

The subject of data set [11] is Caco-2 cells. The data set is described as follows: LDH leakage assay. As to conditions: % of untreated cell negative control; 1% with sonication, complete lysis, positive control. A general note: LDH leaks from cells whose membrane has failed.

Like-named read-outs stand apart in the source and are kept apart here.

Take `N[C@@H](Cc1c[nH]c2ccccc12)C(=O)O` [L-tryptophan]: in data set [1] (pretreatment 5 mg/ml, 1 h), the “inhibition of Caco-2 uptake of DSPE-PCB micelle particles by PAT1 substrates” value is on record as “significantly inhibited”.
Take `CCCCCCCCCC(=O)[O-].[Na+]` [sodium decanoate]: in data set [2] (0.2% w/v, 4 hours), the “TEER / permeability of Caco-2 cell layers” value (shortened to “TEER / permeability”) is “drastically decreased TEER values”. Also, in data set [3], the “serum endotoxin and pro-inflammatory cytokines (TNF-α, IFN-γ, IL-6)” value is reported as “observable increase”. For the same molecule, the “tight junction morphology (TEM)” value in data set [4] is recorded as “even more severe tight junction opening”. Besides, the “excretion ratio of lactulose to mannitol (L/M) in urine” value in data set [5] was “drastically higher L/M ratio values”.
As to “DSPE lipid conjugated with poly(N-methacryloyloxyethyl-N,N-dimethylammonium-α-N-methylcarboxybetaine) [DSPE-PCB micelles]”, the “TEER / permeability” value in data set [2] (Caco-2) is on record as “did not increase the permeability of Caco-2 cell layers”. Also, the “MSD relative to Polysorbate 80 micelles” value in [6] is given as approximately 12 times. Also, in [3] (mouse, in vivo, po), the “small intestine histology (H&E) on day 14” value is reported as “no significant structural damage” and the “tight junction opening, urine lactulose/mannitol test at day 14” value is listed as “no significant tight junction opening”. Also, in data set [7], the “tight junction morphology (TEM)” value was “intact tight junctions”.
As for “Native insulin: native insulin not encapsulated by any carrier”, the glucose-lowering effect result in data set [8] is listed as “hardly achieved any glucose-lowering effect”.
As to Polysorbate 80, the “lactate dehydrogenase (LDH) release” value in [9] was “no significant lactate dehydrogenase (LDH) release”. The “TEER / permeability” value in [2] (Caco-2) is recorded as “drastically decreased TEER values”. In addition, the “cytotoxicity (cell viability, MTT, live/dead staining)” value in [10] is recorded as “no significant cytotoxicity”. Moreover, in data set [1] (Caco-2 cells compared with 3T3 cells, 2 h, 37 C), the cellular uptake entry is “no observable polysorbate 80 uptake”. The “serum endotoxin and pro-inflammatory cytokines (TNF-α, IFN-γ, IL-6)” value in data set [3] was “observable increase”. Besides, the “tight junction morphology (TEM)” value in data set [7] was “severe tight junction opening”. Further, the “excretion ratio of lactulose to mannitol (L/M) in urine” value in data set [5] is recorded as “drastically higher L/M ratio values”.
Regarding Triton X-100, the LDH leakage level in data set [11] was 240%.
